The values below come from patent publication US9650348B2, “Triazines with suitable spacers for treatment and/or prevention of HIV infections” (Universiteit Antwerpen, priority 2012, dated 2017).

In one data set the test system is HIV-1 BaL. Put plainly: TZM-bl antiviral assay, wild type HIV-1 Ba-L. The format is cell-based. The note with it: Human immunodeficiency virus 1, BAL; TZM-bl cells, Ba-L wild type; read-out: Antiviral activity-wild type viruses EC50 TZM-bI Ba-L. Here is the method: (§1) The JC53-BL cell line, also known as the TZM-bl cell line (NIH AIDS Research and Reference Reagent Program, Germantown, USA), was used for the evaluation of anti-HIV activity. TZM-bl cells were cultured in Dulbecco's […] (DMEM) (Lonza) containing 10% heat-inactivated FBS and 50 μg gentamycin/mL at 37° C. in a humidified 5% CO2, 95% air environment. Twice a week the cells were treated with 0.25% trypsin-1 mM EDTA (Lonza) for 10 minutes. The resulting cell suspension was washed with an equivalent amount of TZM-bl medium and subsequently seeded in a T75 culture flask (Greiner Bio-One, Germany) at 10^6 cells in 20 mL medium.
(§2) The antiviral activity of the newly designed compounds was measured by pre-incubating ten thousand TZM-bl cells (at 10^5 cells/mL in culture medium supplemented with 30 μg/mL DEAE dextran) in a 96-well plate for 30 minutes at 37° C., 5% CO2 in the presence or absence of serial dilutions of the respective compound. Subsequently, 200 TCID50 of HIV-1 BaL was added to each well and cultures were incubated for 48 hours before quantifying luciferase activity, using a TriStar LB941 luminometer (Berthold Technologies GmbH & Co. KG, Bad Wildbad, Germany). Each condition was evaluated in triplicate wells and in at least two independent experiments. The antiviral activity of the compound was expressed as the percentage of viral inhibition compared to the untreated controls and subsequently plotted against the compound concentration.
(§3) The target compounds are evaluated for their anti-HIV-1 activity and cytotoxicity. In a primary screen, the anti-HIV activity against the laboratory strain Ba-L and against a primary subtype C isolate was determined in the TZM-bl cell line. Cellular toxicity on TZM-bl cells was evaluated using WST-1. […] In addition, the activity against NNRTI-resistant viruses (V106A, Y181C, L100I+K103N, L100I+E138K+T369I and K101E+K103N+V108VI+V179M+Y181C+E138Q) was tested. Diarylpyrimidines (DAPY) TMC120, TMC125 and TMC278 were used as reference compounds.

Another data set concerns VI829. Put plainly: TZM-bl antiviral assay, wild type VI829 (primary subtype C isolate). The format is cell-based, HIV-1. Particulars: Human immunodeficiency virus 1; TZM-bl cells, VI829 wild type; read-out: Antiviral activity-wild type viruses EC50 TZM-bI VI829. On the procedure: as §1, §2, §3
In data set [1] the test system is HIV-1 Ba-L. Put plainly: Antiviral activity in peripheral blood mononuclear cells (PBMC), Ba-L. It is filed as cell-based. The note with it: Human immunodeficiency virus 1, BAL, Ba-L wild type, read-out: Antiviral activity-wild type viruses EC50 PBMC Ba-L.
Data set [2] concerns HIV-1 Ba-L. Put plainly: Antiviral activity in dendritic cells / CD4+ T lymphocytes (DC/T4), Ba-L. The note with it: Human immunodeficiency virus 1, BAL; DC/T4, Ba-L wild type; read-out: Antiviral activity-wild type viruses EC50 DC/T4 Ba-L. The format is cell-based.
For the next data set, the system named is Ba-L V106A. Put plainly: Antiviral activity, NNRTI-resistant virus V106A. The format is cell-based, HIV-1. Particulars: for FC (V106A): Ba-L V106A; for EC50: Human immunodeficiency virus 1, BAL, read-out: Antiviral activity-NNRTI-resistant viruses EC50 Ba-L V106A. On the procedure:
as §3

The test system of a further data set is VI829 Y181C. Put plainly: Antiviral activity, NNRTI-resistant virus Y181C. The format is cell-based, HIV-1. The note with it: for EC50: Human immunodeficiency virus 1, read-out: Antiviral activity-NNRTI-resistant viruses EC50 VI829 Y181C; for FC (Y181C): VI829 Y181C. On the procedure: as §3
The test system of the next data set is VI829 L100I+K103N. Put plainly: Antiviral activity, NNRTI-resistant virus L100I+K103N. Particulars: for EC50: Human immunodeficiency virus 1, read-out: Antiviral activity-NNRTI-resistant viruses EC50 VI829 L100I+K103N; for FC (L100I+K103N): VI829 L100I+K103N. The format is cell-based, HIV-1. Here is the method:
as §3

Data set [3] relates to Ba-L K101E + K103N + V108VI + V179M + Y181C + E138Q. Description: Antiviral activity, NNRTI-resistant virus K101E+K103N+V108VI+V179M+Y181C+E138Q. Particulars: for FC (*): Ba-L, * = K101E + K103N + V108VI + V179M + Y181C + E138Q; for EC50: Human immunodeficiency virus 1, BAL, read-out: Antiviral activity-NNRTI-resistant viruses EC50 Ba-L *. The format is cell-based, HIV-1. Here is the method:
(§4) The target compounds are evaluated for their anti-HIV-1 activity and cytotoxicity. In a primary screen, the anti-HIV activity against the laboratory strain Ba-L and against a primary subtype C isolate was determined in the TZM-bl cell line. Cellular toxicity on TZM-bl cells was evaluated using WST-1. Based on the primary screening results, the target compound was further evaluated for anti-HIV activity in different primary cells, including peripheral blood mononuclear cells, dendritic cells and CD4+ T lymphocytes. In addition, the activity against NNRTI-resistant viruses (V106A, Y181C, L100I+K103N, L100I+E138K+T369I and K101E+K103N+V108VI+V179M+Y181C+E138Q) was tested. Diarylpyrimidines (DAPY) TMC120, TMC125 and TMC278 were used as reference compounds.

The next data set concerns VI829 L100I+E138K+T369I. Put plainly: Antiviral activity, NNRTI-resistant virus L100I+E138K+T369I. It is filed as cell-based, HIV-1. Particulars: for FC (**): VI829, ** = L1001 + E138K + T3691. On the procedure:
as §4

A short description of a further data set: in vitro. The format is cell-based. The note with it: human, Cytotoxicity CC50 TZM-bI.
Source text: (§5) The Water Soluble Tetrazolium-1 (WST-1) Cell Proliferation Assay is a colorimetric assay for the measurement of cell proliferation and viability. The assay is based on the cleavage of the tetrazolium salt WST-1 (4-[3-(4-iodophenyl)-2-(4-nitrophenyl)-2H-5-tetrazolio]-1,3-benzene disulfonate) to a formazan dye by a complex cellular mechanism. This bioreduction is largely dependent on the glycolytic production of NAD(P)H in viable cells. Therefore, the amount of formazan dye formed correlates directly to the number of viable cells in the culture, and can be quantified by measuring the absorbance at 450 nm in a multiwell plate reader. The greater the number of viable cells, the greater the amount of formazan dye produced following the addition of WST-1. Cytotoxicity of each compound was evaluated using this WST-1 viability assay, according to the manufacturer's instructions (Roche, Vilvoorde, Belgium).
(§6) Briefly, ten thousand TZM-bl cells were seeded in a 96-well plate and cultured for 2 days in the presence of a serial dilution of compound. After this 48 h exposure, Cell Proliferation Reagent, WST-1, was added and absorbance at 450 nm was quantified after 90 min using a microplate reader (BioRad, Tokio, Japan). Each compound was tested in three replicate wells and in at least two independent experiments.
as §3

In another data set the test system is TZM-bl cells. Description: in vitro. Particulars: human, 48 h. It is filed as cell-based.
Source text: as §5, §6, §3

Data set [4] in a line: Partition coefficient (Log D), octanol/PBS. Particulars: octanol/PBS pH 7.4. The format is physicochemical. Here is the method: 10 mM stock solution (in DMSO) was prepared.
200 μM solution (in DMSO) was prepared from 10 mM stock solution.
A set of 5-10 dilutions (in MeOH) of each compound were prepared from 200 μM solution to give final test concentrations between 1 nm and 2 μM.
MS tuning was done for each compound to find the daughter peaks using 500 nm solution.
Calibration curve was made for each compound to evaluate the linearity of our method.
Octanol was first saturated with PBS and PBS was first saturated with octanol
20 μl of a 10 mM DMSO stock solution was added to 990 μl of PBS (pH 7.4) and then 990 μl of octanol was added. The experiment was done in duplicate. After two hours of shaking at 37° C. and keeping at room temperature for 30 minutes the two layers were separated. After separation, octanol layer was diluted further with MeOH and compound was quantified in both layers by UPLC (waters). The samples were analysed in triplicate.
Where: • ConcINITIAL=Concentration of compound in the initial aqueous solution (PBS) • ConcFINAL=Concentration of compound in final aqueous phase (PBS) • Vaq=Volume of aqueous (PBS) • Voct=Volume of octanol

The CC50 is the concentration giving 50% cytotoxicity. As a reminder, the logD is lipophilicity at a set pH, counting ionised and neutral species.

Some results are limits rather than exact numbers.

With `Cc1cc(C)c(Nc2ccnc(Nc3ccc(C#N)cc3)n2)c(C)c1` [TMC120, reference compound], the EC50 in the data set on HIV-1 BaL turned out to be 2 nM; in the data set on VI829 it was 2 nM; in the data set on HIV-1 Ba-L [1] it was 5.1 nM; with HIV-1 Ba-L [2], 1.6 nM; in the data set on Ba-L V106A, 2.5 nM; in the data set with VI829 Y181C, 10.8 nM. Moreover, the EC50 in the data set on VI829 L100I+K103N is 674 nM; in data set [3], more than 1000 nM. The “FC (V106A)” value in the data set on Ba-L V106A stood at 1. The “FC (Y181C)” value in the data set on VI829 Y181C came out at 5. The “activity against Efavirenz resistant viruses (L100I+K103N), in words” value in the data set with VI829 L100I+K103N (L100I+K103N) is listed as “high nanomolar activity”. Further, in the data set on VI829 L100I+K103N, the “FC (L100I+K103N)” value came out at 337. In addition, the “FC (*)” value in data set [3] was more than 500. Besides, the “activity against NNRTI-resistant virus K101E+K103N+V108VI+V179M+Y181C+E138Q, in words” value in data set [3] (K101E+K103N+V108VI+V179M+Y181C+E138Q) is reported as “no activity”. Further, the “activity against NNRTI-resistant virus L100I+E138K+T369I, in words” value in the data set on VI829 L100I+E138K+T369I (L100I+E138K+T369I) is recorded as “no activity”. Also, the “FC (**)” value with VI829 L100I+E138K+T369I is given as more than 500. The same compound gave a CC50 at 48 h in “in vitro” of 2880 nM. In the data set on TZM-bl cells, this compound returned a CC50 of less than 5000 nM. In [4], the logD at 2 h is more than 5.
As to `Cc1cc(/C=C/C#N)cc(C)c1Nc1ccnc(Nc2ccc(C#N)cc2)n1` [TMC278, Rilpivirine, reference compound], the EC50 with HIV-1 BaL stood at 0.72 nM; in the data set on VI829, 1 nM; with HIV-1 Ba-L [1] it was 5.2 nM; with HIV-1 Ba-L [2], 1.6 nM; with Ba-L V106A it was 0.93 nM; in the data set with VI829 Y181C it was 2.5 nM. In addition, the EC50 in the data set with VI829 L100I+K103N was found to be 3.6 nM; in [3] it was 27 nM. Also, the “FC (V106A)” value with Ba-L V106A amounted to 1. Moreover, the “FC (Y181C)” value in the data set with VI829 Y181C amounted to 3. The “FC (L100I+K103N)” value in the data set on VI829 L100I+K103N is 4. Besides, the “FC (*)” value in data set [3] came to 38. Besides, the “FC (**)” value in the data set on VI829 L100I+E138K+T369I worked out at 130. Also, the CC50 at 48 h in “in vitro” is less than 10000 nM. The same compound displayed a CC50 in the data set on TZM-bl cells of 7740 nM. Also, the logD at 2 h in data set [4] turned out to be 4.
